In PubChem BioAssay (NCI):
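Compound exposure: 48 hours, 5 concentrations, 96-well plates. TGI: concentration producing complete growth inhibition.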

Assays:
Assay in all cases: inhibition of tumour cell growth, NCI panel, 48 h
[1] = system: 786-0 renal
[2] = system: A498 renal
[3] = system: A549 NSCLC
[4] = system: ACHN renal
[5] = system: BT-549 breast
[6] = system: CAKI-1 renal
[7] = system: CCRF-CEM leukemia
[8] = system: COLO 205 colon
[9] = system: DU-145 prostate
[10] = system: EKVX NSCLC
[11] = system: HCT-116 colon
[12] = system: HCT-15 colon
[13] = system: HL-60(TB) leukemia
[14] = system: HOP-62 NSCLC
[15] = system: HOP-92 NSCLC
[16] = system: HS 578T breast
[17] = system: HT29 colon
[18] = system: IGROV1 ovarian
[19] = system: K-562 leukemia
[20] = system: KM12 colon
[21] = system: LOX IMVI melanoma
[22] = system: M14 melanoma
[23] = system: MALME-3M melanoma
[24] = system: MCF7 breast
[25] = system: MDA-MB-231 breast
[26] = system: MDA-MB-435
[27] = system: MDA-N
[28] = system: NCI-H23 lung
[29] = system: NCI-H460 lung
[30] = system: NCI-H522 lung
[31] = system: NCI/ADR-RES ovarian
[32] = system: OVCAR-3 ovarian
[33] = system: OVCAR-4 ovarian
[34] = system: OVCAR-5 ovarian
[35] = system: OVCAR-8 ovarian
[36] = system: PC-3 prostate
[37] = system: RPMI-8226 leukemia
[38] = system: RXF 393 renal
[39] = system: SF-268 CNS
[40] = system: SF-295 CNS
[41] = system: SF-539 CNS
[42] = system: SK-MEL-2 melanoma
[43] = system: SK-MEL-28 melanoma
[44] = system: SK-MEL-5 melanoma
[45] = system: SK-OV-3 ovarian
[46] = system: SN12C renal
[47] = system: SNB-19 CNS
[48] = system: SNB-75 CNS
[49] = system: SR leukemia
[50] = system: SW-620 colon
[51] = system: T-47D breast
[52] = system: TK-10 renal
[53] = system: U251 CNS
[54] = system: UACC-257 melanoma
[55] = system: UACC-62 melanoma
[56] = system: UO-31 renal

Compound: COc1ccc(C(=O)/C=C/c2ccc(Oc3cc(C(=O)/C=C/c4ccc(O)cc4)c(O)cc3OC)cc2)c(O)c1
- TGI [1]: 7.9 µM
- TGI [2]: 6.26 µM
- TGI [3]: > 100 µM
- TGI [4]: 6.85 µM
- TGI [5]: > 100 µM
- TGI [6]: 68.4 µM
- TGI [7]: > 100 µM
- TGI [8]: 15.4 µM
- TGI [9]: > 100 µM
- TGI [10]: 23.5 µM
- TGI [11]: 3.96 µM
- TGI [12]: 6.62 µM
- TGI [13]: > 100 µM
- TGI [14]: 49.2 µM
- TGI [15]: 38.4 µM
- TGI [16]: > 100 µM
- TGI [17]: 5.13 µM
- TGI [18]: 6.13 µM
- TGI [19]: > 100 µM
- TGI [20]: 7.83 µM
- TGI [21]: 5.05 µM
- TGI [22]: 61.2 µM
- TGI [23]: 59.8 µM
- TGI [24]: > 100 µM
- TGI [25]: 9.8 µM
- TGI [26]: > 100 µM
- TGI [27]: > 100 µM
- TGI [28]: 18.1 µM
- TGI [29]: > 100 µM
- TGI [30]: 10.5 µM
- TGI [31]: 11 µM
- TGI [32]: 32.2 µM
- TGI [33]: 18 µM
- TGI [34]: 26 µM
- TGI [35]: 9.83 µM
- TGI [36]: > 100 µM
- TGI [37]: 4.7 µM
- TGI [38]: 6.96 µM
- TGI [39]: > 100 µM
- TGI [40]: 40.2 µM
- TGI [41]: 5.26 µM
- TGI [42]: 46 µM
- TGI [43]: 8.15 µM
- TGI [44]: 18.7 µM
- TGI [45]: 96.4 µM
- TGI [46]: > 100 µM
- TGI [47]: > 100 µM
- TGI [48]: 18.2 µM
- TGI [49]: 5.73 µM
- TGI [50]: > 100 µM
- TGI [51]: 66.9 µM
- TGI [52]: 58 µM
- TGI [53]: > 100 µM
- TGI [54]: > 100 µM
- TGI [55]: 11.2 µM
- TGI [56]: 11.3 µM
